Data on 50 compounds can be found in patent US20180362543A1, “HIV REPLICATION INHIBITOR” (Shionogi & Co., Ltd., priority 2013, published 2018).

Where only a bound is given, the exact number is not on record here.

The first test has as its system HIV (HTLV-III B strain). The experiment in a line: HIV replication inhibition assay (MTT, MT-4 cells). Format: cell-based. The settings on record: 4 days culture, concentration at which cell cytotoxicity by virus is inhibited 50%. How it is done: HIV (HTLV-III B strain) persistent infected human T cell strain Molt-4 clone 8 was cultured in 10% Fetal Bovine Serum-containing RPMI-1640 medium and the supernatant was filtrated, then the virus titer was measured and the solution was stored at −80° C. Each anti-human immunodeficiency virus active substance was diluted with the above cultured medium to the designated concentration, which was dispensed into 96 well micro plate by 50 μL. Next, a MT-4 cell suspended liquid was dispensed by 100 μL (2.5×10^4 cells), then the above HIV-containing supernatant diluted with the above cultured medium was added thereto by 50 μL (60 pfu (plaque forming unit)).
The obtained mixture was cultured at 37° C. in CO2 incubator for four days, then 3-(4,5-dimehylthiazole-2-yl)-2,5-diphenyltetrazolynium bromide (MTT) 5 mg/mL in PBS was added to each well by 30 μL, followed by 1 hr-cultivation. In this step, as formazan was precipitated by reduction of MTT in living cells, the cell supernatant was removed from all well by 150 μL, then a 150 μL of solution (10% Triton X-100 and […]) was added thereto, followed by shaking with a plate mixer, to elute formazan. The formazan was measured with a microreader at OD: 560 nm and 690 nm (wavelength) and the result was compared with the reference. EC50 means the compound concentration at which cell cytotoxicity by virus is inhibited 50%.
Compound `Cc1c(-c2c([C@H](OC(C)(C)C)C(=O)O)c(C)c3nc(O)c4ccccc4c3c2C)ccc2c1CCCO2` [Compound 8] displayed an EC50 of 62 nM.
Still for that read-out and setting: the same measure for `Cc1cc(Cl)ccc1-c1c(C)c2c(c(C)c1[C@H](OC(C)(C)C)C(=O)O)N(S(C)(=O)=O)Cc1c(F)ccc(F)c1-2` [Compound 318]: 17 nM; for `Cc1cc(Cl)ccc1-c1c(C)c2c(c(C)c1[C@H](OC(C)(C)C)C(=O)O)N(S(C)(=O)=O)Cc1c(F)ccc(F)c1-2` [Compound 317]: 70 nM.

Still in this test, the particulars now being: Human immunodeficiency virus 1, MT4, 96 h, 4 days culture, concentration at which cell cytotoxicity by virus is inhibited 50%.
As for `Cc1ccc(-c2c(C)c3c(c(C)c2[C@H](OC(C)(C)C)C(=O)O)N(S(C)(=O)=O)Cc2cc(C)cnc2-3)cc1` [Compound 315], the EC50 was < 7.8 nM.
Turning to `Cc1ccc(-c2c(C)c3c(c(C)c2[C@H](OC(C)(C)C)C(=O)O)N(S(C)(=O)=O)Cc2c(C(F)(F)F)ccnc2-3)cc1` [Compound 319], the response was half-maximal at 8.4 nM (EC50).
On the same count and under the same terms, the same measure for `Cc1c(-c2c(C)c3c(c(C)c2[C@H](OC(C)(C)C)C(=O)O)N(S(C)(=O)=O)Cc2ccc(F)c(F)c2-3)ccc2c1NCCO2` [Compound 314]: 5.3 nM; for `Cc1c2c3c(c(C(OC(C)(C)C)C(=O)O)c1-c1ccc4c(c1)CCCO4)CCCN3S(=O)(=O)N(Cc1ccccc1)C2` (centres unmarked) [Compound 79]: 15 nM.
The same measure, in the same setting: the same measure for `COc1nc2c(s1)CN(S(C)(=O)=O)c1c(C)c([C@H](OC(C)(C)C)C(=O)O)c(-c3ccc(C)cc3)c(C)c1-2` [Compound 307]: 51 nM.

Still in this test, the particulars now being: Human immunodeficiency virus 1, MT4, 96 h, Table A-2, four days.
As to `Cc1ccc(-c2c(C)c3c(c(C)c2[C@H](OC(C)(C)C)C(=O)O)NS(=O)(=O)/C=C/CCCCO3)cc1` [Compound 88], the EC50 amounted to 21 nM.
As for `Cc1ccc(-c2c(C)c3c(c(C)c2[C@H](OC(C)(C)C)C(=O)O)NS(=O)(=O)N(C2CCCC2)CC3)cc1` [Compound 129], a half-maximal response (EC50) required 7.7 nM.
With `Cc1ccc(-c2c(C)c3c(c(C)c2[C@H](OC(C)(C)C)C(=O)O)N(S(C)(=O)=O)Cc2cccc(F)c2-3)cc1` [Compound 109], the EC50 turned out to be 9.1 nM.
With `Cc1ccc(-c2c(C)c3c(c(C)c2[C@H](OC(C)(C)C)C(=O)O)NS(=O)(=O)N(C2CCOCC2)CC3)cc1` [Compound 131], the EC50 was determined as 87 nM.
The same measure, in the same setting: for `Cc1ccc(-c2c([C@H](OC(C)(C)C)C(=O)O)c(C)c3nc(O)c4cc(C(F)(F)F)ccc4c3c2C)cc1` [Compound 98] the value was 22 nM.
`Cc1ccc(-c2c(C)c3c(c(C)c2[C@H](OC(C)(C)C)C(=O)O)NC(=O)C2(CCC2)N3)cc1` [Compound 111] showed an EC50 of 7.8 nM.

The same test, now with this note: Human immunodeficiency virus 1, MT4, 96 h, Table A-3, four days.
The compound `Cc1ccc(-c2c(C)c3c(c(C)c2[C@H](OC(C)(C)C)C(=O)O)N(S(C)(=O)=O)Cc2cccc(C(F)(F)F)c2-3)cc1` [Compound 169] yielded an EC50 of 9.6 nM.
On the same count and under the same terms, the same measure for `Cc1ccc(-c2c(C)c3c(c(C)c2[C@H](OC(C)(C)C)C(=O)O)N(S(C)(=O)=O)Cc2cc4c(cc2-3)COC4)cc1` [Compound 166]: 1.7 nM; for `Cc1ccc(-c2c(C)c3c(c(C)c2[C@H](OC(C)(C)C)C(=O)O)NS(=O)(=O)N(c2ccc(F)cc2)CC3)cc1` [Compound 171]: 21 nM.
`Cc1ccc(-c2c(C)c3c(c(C)c2[C@H](OC(C)(C)C)C(=O)O)N(S(C)(=O)=O)Cc2cccnc2-3)cc1` [Compound 145] registered an EC50 of 39 nM.
Regarding `Cc1ccc(-c2c(C)c3c(c(C)c2[C@H](OC(C)(C)C)C(=O)O)N(S(C)(=O)=O)Cc2c(F)ccc(C)c2-3)cc1` [Compound 172], a half-maximal response (EC50) required 42 nM.
On the same count and under the same terms, for `Cc1ccc(-c2c(C)c3c(c(C)c2[C@H](OC(C)(C)C)C(=O)O)N(S(C)(=O)=O)Cc2c-3cccc2C(F)(F)F)cc1` [Compound 173] the value was 9.4 nM.
On the same count and under the same terms, for `Cc1ccc(-c2c(C)c3c4c(c2C(OC(C)(C)C)C(=O)O)CCCN4S(=O)(=O)N(Cc2ccc(F)cc2)C3)cc1` (centres unmarked) [Compound 184] the value was 53 nM; for `Cc1ccc(-c2c(C)c3c(c(C)c2[C@H](OC(C)(C)C)C(=O)O)NC(=O)N(C2CCCC2)CC3)cc1` [Compound 149], 23 nM; for `Cc1ccc(-c2c(C)c3c(c(C)c2[C@H](OC(C)(C)C)C(=O)O)N(S(C)(=O)=O)Cc2cc4c(cc2-3)OCCCO4)cc1` [Compound 175], 2.9 nM.

Still in this test, the particulars now being: Human immunodeficiency virus 1, MT4, 96 h, Table A-4, four days.
`Cc1ccc(-c2c([C@H](OC(C)(C)C)C(=O)O)c(C)c3nc(O)c4ccc(C)nc4c3c2C)cc1` [Compound 217]: the EC50 turned out to be 41 nM.
Regarding `Cc1ccc(-c2c(C)c3c(c(C)c2[C@H](OC(C)(C)C)C(=O)O)N(S(C)(=O)=O)Cc2ccncc2-3)cc1` [Compound 210], it took 38 nM to reach a half-maximal effect (EC50).
On the same count and under the same terms, for `Cc1ccc(-c2c(C)c3c(c(C)c2[C@H](OC(C)(C)C)C(=O)O)N(S(C)(=O)=O)Cc2c(C)cccc2-3)cc1` [Compound 208] the value was 15 nM.
Same read-out and setting: for `Cc1c(-c2c([C@H](OC(C)(C)C)C(=O)O)c(C)c3nc(O)c4cc(F)cnc4c3c2C)ccc2c1NCCO2` [Compound 237] the value was 12 nM; for `Cc1ccc(-c2c([C@H](OC(C)(C)C)C(=O)O)c(C)c3nc(N)c4cc(F)cnc4c3c2C)cc1` [Compound 245], 15 nM; for `Cc1ccc(-c2c([C@H](OC(C)(C)C)C(=O)O)c(C)c3nc(O)c4cc5ccccc5nc4c3c2C)cc1` [Compound 233], 38 nM.
In turn, `COc1ccc2c(O)nc3c(C)c([C@H](OC(C)(C)C)C(=O)O)c(-c4ccc(C)cc4)c(C)c3c2c1` [Compound 226] registered an EC50 of 58 nM.

The same test, now with this note: Human immunodeficiency virus 1, MT4, 96 h, Table A-5, four days.
As for `Cc1ccc(-c2c(C)c3c(c(C)c2[C@H](OC(C)(C)C)C(=O)O)N(S(C)(=O)=O)[C@@H](C)c2ccccc2-3)cc1` [Compound 287], a half-maximal response (EC50) required 33 nM.
Take `Cc1c(-c2ccc(F)cc2)c([C@H](OC(C)(C)C)C(=O)O)c(C)c2c1-c1c(F)cccc1CN2S(C)(=O)=O` [Compound 264]: the EC50 worked out at 19 nM.
As to `Cc1ccc2c(c1F)CN(S(C)(=O)=O)c1c(C)c([C@H](OC(C)(C)C)C(=O)O)c(-c3ccc4c(c3C)CCCO4)c(C)c1-2` [Compound 251], a half-maximal response (EC50) required 2.1 nM.
The same measure, in the same setting: for `Cc1c(-c2ccc3c(c2F)NCCO3)c([C@H](OC(C)(C)C)C(=O)O)c(C)c2c1-c1c(F)cccc1CN2S(C)(=O)=O` [Compound 282] the value was 8.8 nM.
For the compound `Cc1ccc(-c2c(C)c3c(c(C)c2[C@H](OC(C)(C)C)C(=O)O)N(S(C)(=O)=O)CC2CCCCN32)cc1` (some centres unmarked) [Compound 285], the EC50 was determined as 55 nM.

The test is the same for the next values; noted with them: Human immunodeficiency virus 1, MT4, 96 h, Table A-7, four days.
Compound `Cc1c(-c2c(C)c3c(c(C)c2[C@H](OC(C)(C)C)C(=O)O)N(S(C)(=O)=O)Cc2cccc(F)c2-3)ccc2c1NCCC2` [Compound 359] displayed an EC50 of 5.4 nM.
Same read-out and setting: for `Cc1ccc2c(c1)-c1c(C)c(-c3ccc4c(c3C)NCCO4)c([C@H](OC(C)(C)C)C(=O)O)c(C)c1N(S(C)(=O)=O)C2` [Compound 345] the value was 6.8 nM; for `Cc1c(-c2c(C)c3c(c(C)c2[C@H](OC(C)(C)C)C(=O)O)N(S(C)(=O)=O)[C@@H](C)c2cccnc2-3)ccc2c1NCCO2` [Compound 337], 26 nM; for `Cc1c(-c2ccc3c(c2)OCCO3)c([C@H](OC(C)(C)C)C(=O)O)c(C)c2c1-c1c(F)cccc1CN2S(C)(=O)=O` [Compound 336], 22 nM.
`Cc1ccc(-c2c(C)c3c(c(C)c2[C@H](OC(C)(C)C)C(=O)O)N(S(C)(=O)=O)Cc2cc(N)ncc2-3)c(C)c1` [Compound 330]: the EC50 worked out at 53 nM.
`Cc1c(-c2c(C)c3c(c(C)c2[C@H](OC(C)(C)C)C(=O)O)N(C)Cc2cc(F)cc(F)c2-3)ccc2c1NCCO2` [Compound 344] registered a concentration for a half-maximal effect (EC50) of 47 nM.
`Cc1c(-c2ccc3c(c2)NCCC3)c([C@H](OC(C)(C)C)C(=O)O)c(C)c2c1-c1c(F)cccc1CN2S(C)(=O)=O` [Compound 340] returned an EC50 of 4.3 nM.

The test is the same for the next values; noted with them: Human immunodeficiency virus 1, MT4, 96 h, Table A-8 (continuation of Tables A-1 to A-9), four days.
`COc1cc2c(cn1)-c1c(C)c(-c3ccc(C)cc3C)c([C@H](OC(C)(C)C)C(=O)O)c(C)c1N(S(C)(=O)=O)C2` [Compound 393] displayed an EC50 of 4.7 nM.
Regarding `Cc1ccc(-c2c(C)c3c(c(C)c2[C@H](OC(C)(C)C)C(=O)O)N(S(C)(=O)=O)Cc2cccc(F)c2-3)c(CO)c1` [Compound 394], the concentration for a half-maximal effect (EC50) was determined as 27 nM.
The compound `Cc1ccc(-c2c(C)c3c(c(C)c2[C@H](OC(C)(C)C)C(=O)O)N(S(C)(=O)=O)Cc2cc(C)cnc2-3)c(O)c1` [Compound 382] had an EC50 of 49 nM.
In turn, `Cc1ccc(-c2c(C)c3c(c(C)c2[C@H](OC(C)(C)C)C(=O)O)N(S(C)(=O)=O)Cc2c(C)ccnc2-3)cc1` [Compound 392] came in with an EC50 of 31 nM.
As to `Cc1c(-c2ccc(Cl)cc2)c([C@H](OC(C)(C)C)C(=O)O)c(C)c2c1-c1ncccc1CN2S(C)(=O)=O` [Compound 369], a half-maximal response (EC50) required 44 nM.
For `Cc1ccc(-c2c(C)c3c(c(C)c2[C@H](OC2(C)CCC2)C(=O)O)N(S(C)(=O)=O)Cc2cccc(F)c2-3)cc1` [Compound 375], the EC50 came to 19 nM.

Still in this test, the particulars now being: Table A-2, four days.
`Cc1ccc(-c2c(C)c3c(c(C)c2[C@H](OC(C)(C)C)C(=O)O)NS(=O)(=O)Cc2ccc(C)cc2-3)cc1` [Compound 120]: a half-maximal effect (EC50) was put at 5.1 nM.

The same test, now with this note: Table A-7, four days.
In turn, `Cc1c(-c2ccccc2)c([C@H](OC(C)(C)C)C(=O)O)c(C)c2c1-c1ncc(F)cc1CN2S(C)(=O)=O` [Compound 326] registered an EC50 of 54 nM.

The term EC50 denotes the midpoint of the concentration-response curve.
